# Assay results: US8450093B1, “Adaptive engineering of clostridium for increased butanol production” (The Ohio State University, priority 2010, dated 2013)
# Key:
# [1] = system: ATCC 824; details: 12 g/L butanol
# Description: (§1) Butanol tolerances of different strains are investigated and compared according to the maximal specific growth rates achieved under the challenge of different concentrations of butanol. Seed cultures are prepared the same way as those used for fermentor fermentation. Then, seeds of different strains are inoculated into 10 ml of CGM medium in serum tubes supplemented with different concentrations of butanol. The tubes are incubated at 37° C. and optical densities (OD600) are measured every 2 h. Growth curves may be drawn according to the OD600 data. Maximal specific growth rates (h^−1) of different strains under different butanol concentrations may be calculated based on the growth curves.
# [2] = system: BA 101; details: 12 g/L butanol
# Description: as §1
# [3] = system: C. acetobutylicum ATCC 55025 (parental strain)
# Description: as §1
# [4] = system: JB200; details: CGM medium, 37° C., OD600
# Description: as §1
# [5] = system: NCIMB 8052; details: 12 g/L butanol
# Description: as §1
substance,measurement,setting,value
butanol,growth in the presence of butanol,[1],none of them could grow
same,growth in the presence of butanol,[2],none of them could grow
same,butanol concentration above which cell growth stopped,"[3]; CGM medium, 37° C., OD600",higher than 12 g/L
same,butanol concentration at which growth usually stops (cells lysed),"[3]; general statement, parental strain",10-12 g/L
same,butanol concentration at which cells still grew,[4],16 g/L
same,growth in the presence of butanol,[5],none of them could grow
